EP2119770B1, “Production of alpha-oxyfunctionalized carbonyl compounds” (priority 2008, dated 2009)

Experiments:
Type in all cases: biochemical
Gox0313 = molecular target: T1, Gox0313 (Gluconobacter oxydans, UniProt Q5FU50); experiment: Enzyme activity assay (rate of NAD(P)H decrease at 340 nm), Gox0313; settings: 10 mM substrate; for Specific Activity: Tab. 6, Gox0313, substrate reduction, cofactor NADH, pH 7.0, 30 °C; for Activity: Table 3, Gox0313, K-phosphate buffer pH 7.0, 0.05 mM NAD(P)H, 30 °C
T1 sequence (Q5FU50 1-343): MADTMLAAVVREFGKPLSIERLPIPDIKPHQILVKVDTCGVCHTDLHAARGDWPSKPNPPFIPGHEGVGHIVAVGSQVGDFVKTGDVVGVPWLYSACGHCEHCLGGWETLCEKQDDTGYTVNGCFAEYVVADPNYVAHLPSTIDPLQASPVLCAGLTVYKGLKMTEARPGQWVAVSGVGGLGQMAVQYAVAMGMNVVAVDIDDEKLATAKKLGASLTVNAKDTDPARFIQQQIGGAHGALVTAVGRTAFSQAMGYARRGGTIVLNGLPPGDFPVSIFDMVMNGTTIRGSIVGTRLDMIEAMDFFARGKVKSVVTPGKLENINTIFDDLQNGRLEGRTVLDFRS
Method in brief: (§1)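 Purified enzymes assayed at 30 °C in 40 mM potassium phosphate pH 7.0 with 10 mM substrate and NAD(P)H (0.025 mM, or 0.05 mM in the standard mixture), started by adding enzyme or substrate. Activity followed as the rate of NAD(P)H decrease at 340 nm; one unit = 1 µmol pyridine nucleotide converted per min; protein measured by Bradford.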

Gox2107 = Gox2107 (Gluconobacter oxydans, UniProt Q5FP53); experiment: Enzyme activity assay (rate of NAD(P)H decrease at 340 nm), Gox2107; settings: 10 mM substrate; for Specific Activity: Tab. 7, Gox2107, cofactor NADPH, pH 7.0, 30 °C
Method in brief: as §1

Gox0502 = molecular target: T2, Gox0502 (Gluconobacter oxydans, UniProt Q5FTL6); experiment: Enzyme activity assay (rate of NAD(P)H decrease at 340 nm), Gox0502; parameters: Strep-tag II (N); made in house; host or cells: E. coli BL21 or E. coli DH5α (pASK-IBA5); settings: 10 mM substrate; for Specific Activity: Tab. 7, Gox0502, cofactor NADPH, pH 7.0, 30 °C; for Activity: Table 3, Gox0502, K-phosphate buffer pH 7.0, 0.05 mM NAD(P)H, 30 °C
T2 sequence (Q5FTL6 1-361): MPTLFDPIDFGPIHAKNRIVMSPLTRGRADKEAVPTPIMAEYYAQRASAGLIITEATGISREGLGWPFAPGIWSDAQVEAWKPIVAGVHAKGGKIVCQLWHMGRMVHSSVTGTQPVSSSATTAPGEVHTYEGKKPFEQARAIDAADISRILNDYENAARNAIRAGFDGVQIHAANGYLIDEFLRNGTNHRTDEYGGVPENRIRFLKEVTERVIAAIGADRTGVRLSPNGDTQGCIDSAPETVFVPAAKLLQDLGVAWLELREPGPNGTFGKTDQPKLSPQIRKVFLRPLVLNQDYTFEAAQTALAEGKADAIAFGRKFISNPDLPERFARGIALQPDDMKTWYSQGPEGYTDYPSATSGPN
Method in brief: as §1

Gox0646 = molecular target: T3, Gox0646 (Gluconobacter oxydans, UniProt Q5FT73); experiment: Enzyme activity assay (rate of NAD(P)H decrease at 340 nm), Gox0646; settings: 10 mM substrate; for Specific Activities: Tab. 9, GOX0646, cofactor NADPH, pH 7.0, 30 °C; for Activity: Table 3, Gox0646, K-phosphate buffer pH 7.0, 0.05 mM NAD(P)H, 30 °C
T3 sequence (Q5FT73 1-264): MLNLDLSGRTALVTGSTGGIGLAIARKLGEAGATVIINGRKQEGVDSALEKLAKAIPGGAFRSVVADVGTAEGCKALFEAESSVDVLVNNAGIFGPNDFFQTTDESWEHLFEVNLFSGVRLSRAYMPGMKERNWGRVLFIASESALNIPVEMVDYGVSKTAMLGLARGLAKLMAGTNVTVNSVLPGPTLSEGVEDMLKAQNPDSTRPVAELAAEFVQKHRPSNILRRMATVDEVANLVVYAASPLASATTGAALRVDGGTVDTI
Protocol: Measurment of enzyme activity: NADPH-dependent alpha-ketocarbonyl reductases were assayed by a routine method used for NAD(P)-linked enzymes by recording the rate of decrease of NADPH at 340 nm (ε = 6.22 mM^-1 x cm^-1)) with substrates at 30 °C. The reaction mixture (1 ml) for reduction of alpha-ketocarbonyl substrates contained 10 mM substrate, 40 mM potassium phosphate buffer pH 7.0, 0.025 mM NAD(P)H , and the enzyme. Reactions were induced by addition of enzyme or substrate. One unit of enzyme activity was defined as the amount of enzyme catalyzing the conversion of 1 µmol of pyridine nucleotide per min at 30 °C.
NADPH-dependent α-ketocarbonyl reductases were assayed by a routine method used for NAD(P)-linked enzymes by recording the rate of decrease of NADPH at 340 nm (ε = 6.22 mM^-1.cm^-1) with substrates at 30 °C. The reaction mixture (1 ml) for reduction of alpha-ketocarbonyl substrates contained 10 mM substrate, 40 mM potassium phosphate buffer pH 7.0, 0.025 mM NADPH , and the enzyme. Reactions were induced by addition of enzyme or substrate. One unit of enzyme activity was defined as the amount of enzyme catalyzing the conversion of 1 µmol of pyridine nucleotide per min at 30 °C.
For each enzyme (Gox0313, Gox0502, Gox0644, Gox0646, Gox1615, Gox2107, and Gox2684 respectively), fresh enzyme preparations were used to validate the substrate spectrum and the kinetic activity. […] Purified NAD(P)-dependent oxidoreductases were assayed at 30 °C by a routine method used for NAD(P)-linked enzymes by recording the rate of decrease of NAD(P)H at 340 nm (ε = […]) with substrates capable of reduction reactions. The standard reaction mixture (1 ml) for the reduction reactions of substrates contained 10 mM substrate, 40 mM potassium phosphate buffer (K-phosphate buffer) pH 7.0, 0.05 mM NAD(P)H, and the enzyme unless otherwise noted. Reactions were induced by addition of enzyme or substrate. One unit of enzyme activity was defined as the amount of enzyme catalyzing the conversion of 1 µmol of pyridine nucleotide per min at 30 °C. Measurement of the protein content was performed by the method of Bradford in Anal. Biochem. 72:248-254 (1976). Table 3: Summary of enzymatic activities with α-diketones, α-ketoaldehydes and /or α-ketoesters

For O=CC(=O)c1ccccc1 [phenylglyoxal], the “Specific Activity” value (Gox0313) was 0.5 U/mg, the Activity (Gox0313) was 0.5 U/mg and the “Specific Activity” value (Gox2107) was 35.2 U/mg. The Activity (Gox2107; Table 3, Gox2107, K-phosphate buffer pH 7.0, 0.05 mM NAD(P)H, 30 °C) was 35.2 U/mg, the “Specific Activity” value (Gox0502) was 15.7 U/mg and the Activity (Gox0502) was 15.7 U/mg.
In the case of CCC(=O)C(=O)CC [3,4-hexanedione], the “Specific Activity” value (Gox0313) is reported as 19.5 U/mg, the Activity (Gox0313) is reported as 19.5 U/mg and the “Specific Activities” value (Gox0646) is reported as 2.0 U/mg. The Activity (Gox0646) was 2.0 U/mg, the “Specific Activity” value (Gox2107) was less than 0.1 U/mg and the “Specific Activity” value (Gox0502) was 2,0 U/mg. For the same compound, the Activity (Gox0502) was 2.0 U/mg.
With CCC(=O)C(C)=O [2,3-pentanedione] the “Specific Activity” value (Gox0313) was 35.9 U/mg, the Activity (Gox0313) was 35.9 U/mg and the “Specific Activities” value (Gox0646) was 8.0 U/mg. It also gave an Activity (Gox0646) of 8.0 U/mg.
With CC(=O)C=O [methylglyoxal] the “Specific Activity” value (Gox0313) was 10.6 U/mg, the Activity (Gox0313) was 10.6 U/mg and the “Specific Activities” value (Gox0646) was 0.2 U/mg. For the same compound, the Activity (Gox0646) was 0.2 U/mg, the “Specific Activity” value (Gox2107) was less than 0.1 U/mg and the “Specific Activity” value (Gox0502) was 1.5 U/mg.
CCCC(=O)C(C)=O [2,3-hexanedione] was tested, and the “Specific Activity” value (Gox0313) was 19.6 U/mg, the Activity (Gox0313) was 19.6 U/mg and the “Specific Activities” value (Gox0646) was 8.0 U/mg. For the same compound, the Activity (Gox0646) was 8.0 U/mg, the “Specific Activity” value (Gox2107) was less than 0.1 U/mg and the “Specific Activity” value (Gox0502) was 1.0 U/mg.
